How the values were obtained:
[1] = biological target: T1, Tyrosine-protein kinase JAK2 (Homo sapiens, UniProt O60674); assay: Inhibition of JAK2 using biotin-EQEDEPEGDYFEWLE- NH2 as substrate
[2] = Selectivity ratio of IC50 for JAK3 to IC50 for JAK2
[3] = biological target: Voltage-gated inwardly rectifying potassium channel KCNH2 (Homo sapiens, UniProt Q12809); assay: Inhibition of human hERG
CYP3A4 = CYP3A4 (Homo sapiens, UniProt P08684); assay: Inhibition of CYP3A4 at 10 uM; type: ADME
CYP2C9 = CYP2C9 (Homo sapiens, UniProt P11712); assay: Inhibition of CYP2C9 at 10 uM; type: ADME
[4] = biological target: T1, Tyrosine-protein kinase JAK2; assay: Inhibition of JAK2-mediated STAT5 phosphorylation in human HEL 92.1.7 irf1-bla cells; type: cell-based
[5] = biological target: T2, Tyrosine-protein kinase JAK3 (Homo sapiens, UniProt P52333); assay: Inhibition of JAK3 using biotin-EQEDEPEGDYFEWLE- NH2 as substrate
T2 sequence (P52333 whole entry): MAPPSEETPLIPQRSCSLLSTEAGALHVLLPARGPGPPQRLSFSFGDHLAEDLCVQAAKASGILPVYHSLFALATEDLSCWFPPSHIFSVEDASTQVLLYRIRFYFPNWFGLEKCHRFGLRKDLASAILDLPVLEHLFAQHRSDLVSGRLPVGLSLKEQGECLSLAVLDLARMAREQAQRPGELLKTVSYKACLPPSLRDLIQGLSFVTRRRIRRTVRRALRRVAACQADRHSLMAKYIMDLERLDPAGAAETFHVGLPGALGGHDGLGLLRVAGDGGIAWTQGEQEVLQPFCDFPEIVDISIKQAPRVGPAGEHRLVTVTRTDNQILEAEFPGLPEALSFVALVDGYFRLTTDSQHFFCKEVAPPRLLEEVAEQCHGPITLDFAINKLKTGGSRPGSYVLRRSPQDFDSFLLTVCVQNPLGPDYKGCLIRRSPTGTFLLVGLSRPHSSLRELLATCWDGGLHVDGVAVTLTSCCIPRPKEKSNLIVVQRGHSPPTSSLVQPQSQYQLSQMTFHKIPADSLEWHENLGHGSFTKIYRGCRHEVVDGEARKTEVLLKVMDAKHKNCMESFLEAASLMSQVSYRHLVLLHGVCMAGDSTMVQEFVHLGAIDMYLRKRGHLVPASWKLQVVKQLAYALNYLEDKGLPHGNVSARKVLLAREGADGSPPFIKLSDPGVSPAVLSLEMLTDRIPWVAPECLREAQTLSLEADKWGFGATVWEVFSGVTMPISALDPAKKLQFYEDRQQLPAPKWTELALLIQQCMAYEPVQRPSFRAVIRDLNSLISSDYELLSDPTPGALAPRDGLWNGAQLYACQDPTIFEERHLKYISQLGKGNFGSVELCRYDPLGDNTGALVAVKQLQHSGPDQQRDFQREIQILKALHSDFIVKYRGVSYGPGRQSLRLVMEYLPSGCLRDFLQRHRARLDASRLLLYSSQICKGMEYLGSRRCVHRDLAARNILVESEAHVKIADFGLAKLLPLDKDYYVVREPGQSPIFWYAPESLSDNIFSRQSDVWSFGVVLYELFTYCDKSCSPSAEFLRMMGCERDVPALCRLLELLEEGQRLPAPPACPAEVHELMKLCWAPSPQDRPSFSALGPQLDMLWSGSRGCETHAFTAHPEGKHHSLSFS

[6] = Clearance in rat at 1 mg/kg, iv; type: ADME, organism-based; parameters: dose 1 mg/kg, route intravenous; settings: in vivo
[7] = Half life in rat at 1 mg/kg, iv; type: ADME, organism-based; parameters: dose 1 mg/kg, route intravenous; settings: in vivo
[8] = Metabolic stability in rat hepatocytes assessed as half life; type: ADME, cell-based, Liver, Hepatocyte
[9] = Bioavailability in rat at 1 mg/kg, iv; type: ADME, organism-based; settings: in vivo

CYP2C9, sequence (P11712 whole entry): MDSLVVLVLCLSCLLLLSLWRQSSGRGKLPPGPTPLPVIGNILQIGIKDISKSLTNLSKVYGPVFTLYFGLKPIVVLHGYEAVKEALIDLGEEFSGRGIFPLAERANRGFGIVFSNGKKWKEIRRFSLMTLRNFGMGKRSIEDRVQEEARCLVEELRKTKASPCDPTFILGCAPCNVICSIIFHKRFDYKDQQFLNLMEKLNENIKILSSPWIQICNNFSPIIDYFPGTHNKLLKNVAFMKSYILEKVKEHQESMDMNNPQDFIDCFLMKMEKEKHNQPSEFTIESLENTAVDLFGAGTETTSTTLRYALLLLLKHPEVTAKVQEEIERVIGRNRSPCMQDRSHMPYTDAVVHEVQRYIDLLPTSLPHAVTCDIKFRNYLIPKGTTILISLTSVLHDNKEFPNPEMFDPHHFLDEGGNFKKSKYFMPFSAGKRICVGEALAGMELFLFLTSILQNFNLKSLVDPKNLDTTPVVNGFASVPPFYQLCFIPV
CYP3A4, sequence (P08684 whole entry): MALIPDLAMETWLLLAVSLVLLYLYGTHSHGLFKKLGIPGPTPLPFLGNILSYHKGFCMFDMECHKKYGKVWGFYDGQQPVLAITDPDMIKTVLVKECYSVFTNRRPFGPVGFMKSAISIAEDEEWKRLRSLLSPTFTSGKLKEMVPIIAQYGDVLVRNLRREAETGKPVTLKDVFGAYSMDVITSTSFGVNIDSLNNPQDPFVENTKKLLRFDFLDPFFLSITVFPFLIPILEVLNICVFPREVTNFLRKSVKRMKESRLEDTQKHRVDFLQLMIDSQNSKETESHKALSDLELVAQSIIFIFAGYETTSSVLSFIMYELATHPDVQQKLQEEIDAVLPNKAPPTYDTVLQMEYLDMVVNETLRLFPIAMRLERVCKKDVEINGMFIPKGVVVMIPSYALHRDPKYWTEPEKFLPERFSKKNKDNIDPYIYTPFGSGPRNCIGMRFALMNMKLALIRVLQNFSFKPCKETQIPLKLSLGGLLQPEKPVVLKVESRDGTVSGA
T1 sequence (O60674 whole entry): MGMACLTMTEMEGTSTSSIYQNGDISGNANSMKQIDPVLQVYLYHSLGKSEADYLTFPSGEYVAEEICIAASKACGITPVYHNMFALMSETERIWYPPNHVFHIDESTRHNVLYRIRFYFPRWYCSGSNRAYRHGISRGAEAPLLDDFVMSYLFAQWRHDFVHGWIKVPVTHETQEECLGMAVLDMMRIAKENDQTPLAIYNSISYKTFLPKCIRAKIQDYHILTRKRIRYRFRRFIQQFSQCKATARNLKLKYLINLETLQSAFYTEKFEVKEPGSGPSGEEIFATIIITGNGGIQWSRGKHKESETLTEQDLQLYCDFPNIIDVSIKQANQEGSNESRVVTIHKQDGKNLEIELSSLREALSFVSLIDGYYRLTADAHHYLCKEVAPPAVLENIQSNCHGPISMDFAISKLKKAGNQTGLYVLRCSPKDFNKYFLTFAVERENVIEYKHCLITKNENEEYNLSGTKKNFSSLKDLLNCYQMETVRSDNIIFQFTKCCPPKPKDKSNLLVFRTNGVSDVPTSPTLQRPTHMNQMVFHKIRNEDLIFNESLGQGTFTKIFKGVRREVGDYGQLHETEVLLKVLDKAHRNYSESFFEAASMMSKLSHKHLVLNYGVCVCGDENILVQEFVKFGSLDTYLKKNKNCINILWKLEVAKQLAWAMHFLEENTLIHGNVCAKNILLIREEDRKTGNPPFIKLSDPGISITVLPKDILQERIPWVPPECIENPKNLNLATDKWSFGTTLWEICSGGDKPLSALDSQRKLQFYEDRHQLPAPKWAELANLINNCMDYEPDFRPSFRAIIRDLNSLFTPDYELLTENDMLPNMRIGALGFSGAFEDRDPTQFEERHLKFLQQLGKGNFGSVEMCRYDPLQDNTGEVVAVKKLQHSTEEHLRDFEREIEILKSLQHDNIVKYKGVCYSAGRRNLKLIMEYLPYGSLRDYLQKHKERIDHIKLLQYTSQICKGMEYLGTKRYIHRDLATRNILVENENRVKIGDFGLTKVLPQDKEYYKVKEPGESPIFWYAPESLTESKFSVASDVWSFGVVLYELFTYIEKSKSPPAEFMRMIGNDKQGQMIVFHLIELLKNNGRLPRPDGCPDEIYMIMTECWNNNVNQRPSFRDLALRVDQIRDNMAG
Voltage-gated inwardly rectifying potassium channel KCNH2, sequence (Q12809 whole entry): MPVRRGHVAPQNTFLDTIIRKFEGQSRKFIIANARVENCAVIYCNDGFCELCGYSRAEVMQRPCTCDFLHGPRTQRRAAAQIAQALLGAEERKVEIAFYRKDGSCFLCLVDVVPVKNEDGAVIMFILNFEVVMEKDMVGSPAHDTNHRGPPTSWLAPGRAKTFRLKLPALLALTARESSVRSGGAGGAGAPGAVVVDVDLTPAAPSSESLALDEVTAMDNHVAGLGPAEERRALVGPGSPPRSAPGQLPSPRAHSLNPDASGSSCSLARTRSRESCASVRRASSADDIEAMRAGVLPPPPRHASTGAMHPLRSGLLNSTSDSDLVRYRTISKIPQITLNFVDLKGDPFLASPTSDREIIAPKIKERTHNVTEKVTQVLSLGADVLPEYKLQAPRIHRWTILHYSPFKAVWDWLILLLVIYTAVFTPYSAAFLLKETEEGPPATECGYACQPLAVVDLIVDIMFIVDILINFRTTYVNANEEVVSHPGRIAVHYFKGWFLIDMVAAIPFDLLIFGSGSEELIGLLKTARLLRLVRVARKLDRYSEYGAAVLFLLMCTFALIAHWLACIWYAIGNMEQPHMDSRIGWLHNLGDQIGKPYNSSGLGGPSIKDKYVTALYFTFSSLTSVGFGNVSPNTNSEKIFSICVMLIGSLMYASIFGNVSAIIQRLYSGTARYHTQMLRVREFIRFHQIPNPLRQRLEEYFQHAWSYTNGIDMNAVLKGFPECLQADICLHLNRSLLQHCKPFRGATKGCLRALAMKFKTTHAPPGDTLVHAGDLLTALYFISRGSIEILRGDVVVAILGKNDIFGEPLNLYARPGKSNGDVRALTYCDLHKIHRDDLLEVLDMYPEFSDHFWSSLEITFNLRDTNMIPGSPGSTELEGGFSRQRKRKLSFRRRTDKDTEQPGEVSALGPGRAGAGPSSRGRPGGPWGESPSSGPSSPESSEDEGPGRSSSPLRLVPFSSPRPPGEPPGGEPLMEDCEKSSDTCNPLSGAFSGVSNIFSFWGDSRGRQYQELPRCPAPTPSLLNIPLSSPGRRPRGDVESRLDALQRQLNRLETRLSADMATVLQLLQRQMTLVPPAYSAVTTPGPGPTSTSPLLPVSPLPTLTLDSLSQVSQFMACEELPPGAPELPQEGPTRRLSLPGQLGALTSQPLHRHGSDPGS

Structure (SMILES) | IC50 [1] [nM] | Ratio IC50 [2] | IC50 [4] [nM] | IC50 [5] [nM] | also measured
Cn1cc(-c2ccc3c(c2)[nH]c2c(C(N)=O)cnc(NC4CCCCC4)c23)cn1 | 5 | > 50 | – | – | IC50 [3]: 620 nM; inhibition at 10 µM (CYP3A4): 75%
NC(=O)c1cnc(NC(C2CC2)C2CC2)c2c1[nH]c1cc(-c3cnc(N)cn3)ccc12 | 4 | > 50 | 100 | 640 | inhibition at 10 µM (CYP2C9): 46%; IC50 [3]: 720 nM; inhibition at 10 µM (CYP3A4): 65%
CC(C)Cn1cc(-c2ccc3c(c2)[nH]c2c(C(N)=O)cnc(N[C@@H](C)C(C)(C)C)c23)cn1 | 41 | > 50 | – | – | –
C[C@@H](Nc1ncc(C(N)=O)c2[nH]c3ccc(F)cc3c12)C(C)(C)C | 210 | > 50 | – | – | –
CCCCNc1ncc(C(N)=O)c2[nH]c3ccc(F)cc3c12 | 49 | > 50 | – | – | –
NC(=O)c1cnc(NC2CCCCC2)c2c1[nH]c1cc(-c3ccn[nH]3)ccc12 | – | > 50 | – | – | –
CCCNc1ncc(C(N)=O)c2[nH]c3ccc(F)cc3c12 | 68 | > 50 | – | – | –
NC(=O)c1cnc(NC2CCCC2)c2c1[nH]c1ccc(F)cc12 | 51 | > 50 | – | – | –
C[C@H](Nc1ncc(C(N)=O)c2[nH]c3ccc(F)cc3c12)C(C)(C)C | 52 | > 50 | – | – | –
NC(=O)c1cnc(NC2CCCCC2)c2c1[nH]c1ccccc12 | 59 | > 50 | – | – | –
NC(=O)c1cnc(N2CCCC2)c2c1[nH]c1ccc(F)cc12 | 230 | > 50 | – | – | –
CC(C)C(Nc1ncc(C(N)=O)c2[nH]c3cc(-c4cnn(C)c4)ccc3c12)C1CC1 (stereo not given) | 3 | > 50 | 95 | 210 | –
Cn1cc(-c2ccc3c(c2)[nH]c2c(C(N)=O)cnc(N[C@@H](C4CC4)C(F)(F)F)c23)cn1 | 9 | – | 530 | 1900 | –
C[C@H](Nc1ncc(C(N)=O)c2[nH]c3cc(-c4cnn(C)c4)ccc3c12)C1CC1 | 1 | > 50 | 14 | 140 | clearance [6]: 44 mL/min/kg; half-life [7]: 60 min; half-life [8]: 61 min
NC(=O)c1cnc(NC2CCCCC2)c2c1[nH]c1cccc(Cl)c12 | 110 | > 50 | – | – | –
C[C@H](Nc1ncc(C(N)=O)c2[nH]c3cc(-c4ccc(Cl)nn4)ccc3c12)C(C)(C)C | 14 | > 50 | – | – | –
Cn1cc(-c2ccc3[nH]c4c(C(N)=O)cnc(NC5CCCCC5)c4c3c2)cn1 | 13 | > 50 | – | – | –
CC(C)Nc1ncc(C(N)=O)c2[nH]c3ccc(F)cc3c12 | 100 | > 50 | – | – | –
NC(=O)c1cnc(N[C@H](C2CC2)C(F)(F)F)c2c1[nH]c1cc(-c3cn[nH]c3)ccc12 | 1 | – | 32 | 220 | inhibition at 10 µM (CYP2C9): 61%; clearance [6]: 21 mL/min/kg; inhibition at 10 µM (CYP3A4): 68%
C[C@H](Nc1ncc(C(N)=O)c2[nH]c3cc(-c4cnn(C)c4)ccc3c12)C(C)(C)C | 5 | > 50 | 370 | 350 | IC50 [3]: 29000 nM; half-life [8]: 15 min; inhibition at 10 µM (CYP3A4): 49%
Cn1cc(-c2ccc3c(c2)[nH]c2c(C(N)=O)cnc(N[C@H](C4CCC4)C(F)(F)F)c23)cn1 | 12 | > 50 | 350 | 1700 | –
NC(=O)c1cnc(NC2CCCCC2)c2c1[nH]c1ccc(F)cc12 | 17 | > 50 | – | – | –
NC(=O)c1cnc(NC(C2CC2)C2CC2)c2c1[nH]c1cc(-c3cccnn3)ccc12 | 2 | > 50 | 28 | 270 | –
NC(=O)c1cnc(NC2CCCCC2)c2c1[nH]c1cc(-c3cc[nH]n3)ccc12 | 23 | – | – | – | –
C[C@H](Nc1ncc(C(N)=O)c2[nH]c3cc(-c4ccnc(N)n4)ccc3c12)C(C)(C)C | 12 | > 50 | – | – | –
Cn1cc(-c2ccc3c(c2)[nH]c2c(C(N)=O)cnc(N[C@H](C4CC4)C(F)(F)F)c23)cn1 | 0.4 | – | 41 | 230 | inhibition at 10 µM (CYP2C9): 66%; clearance [6]: 14 mL/min/kg; half-life [7]: 246 min; inhibition at 10 µM (CYP3A4): 48%; bioavailability [9]: 65%

Continued, in another order:

IC50 [1] [nM] | Ratio IC50 [2] | IC50 [4] [nM] | IC50 [5] [nM] | Structure (SMILES) | also measured
190 | > 50 | – | – | NC(=O)c1cnc(N2CCCCC2)c2c1[nH]c1ccc(F)cc12 | –
23 | > 50 | – | – | NC(=O)c1cnc(NC2CCCCC2)c2c1[nH]c1cc(Cl)ccc12 | –
3 | – | 40 | 220 | NC(=O)c1cnc(NC(C2CC2)C2CC2)c2c1[nH]c1cc(-c3cn[nH]c3)ccc12 | inhibition at 10 µM (CYP2C9): 80%; clearance [6]: 31 mL/min/kg; inhibition at 10 µM (CYP3A4): 66%
18 | > 50 | – | – | NC(=O)c1cnc(NC2CCOCC2)c2c1[nH]c1ccc(F)cc12 | –
10 | > 50 | – | – | C[C@H](Nc1ncc(C(N)=O)c2[nH]c3cc(-c4ccc(N)nn4)ccc3c12)C(C)(C)C | –
3 | > 50 | – | 560 | CC(C)[C@@H](Nc1ncc(C(N)=O)c2[nH]c3cc(-c4cnn(C)c4)ccc3c12)C(F)(F)F | –
19 | > 50 | – | – | NC(=O)c1cnc(NC2CCCCCC2)c2c1[nH]c1ccc(F)cc12 | –
74 | > 50 | – | – | CC(C)CNc1ncc(C(N)=O)c2[nH]c3ccc(F)cc3c12 | –
2 | > 50 | 130 | 280 | Cn1cc(-c2ccc3c(c2)[nH]c2c(C(N)=O)cnc(NC(C4CC4)C4CC4)c23)cn1 | inhibition at 10 µM (CYP2C9): 80%; clearance [6]: 22 mL/min/kg; IC50 [3]: 1700 nM; half-life [7]: 192 min; inhibition at 10 µM (CYP3A4): 62%
70 | > 50 | – | – | NC(=O)c1cnc(NC2CCCCC2)c2c1[nH]c1cc(-c3ccccc3)ccc12 | –
210 | > 50 | – | – | CNc1ncc(C(N)=O)c2[nH]c3ccc(F)cc3c12 | –
180 | > 50 | – | – | NC(=O)c1cnc(NC2CCCCC2)c2c1[nH]c1ccc(-c3ccccc3)cc12 | –
13 | > 50 | – | – | NC(=O)c1cnc(NC2CCCCC2)c2c1[nH]c1cc(-c3cn[nH]c3)ccc12 | –
8 | > 50 | 530 | 430 | NC(=O)c1cnc(N[C@H](C2CC2)C(F)(F)F)c2c1[nH]c1cc(-c3cnc(N4CCOCC4)nc3)ccc12 | clearance [6]: 15 mL/min/kg
11 | > 50 | 79 | 740 | C[C@@H](Nc1ncc(C(N)=O)c2[nH]c3cc(-c4cnn(C)c4)ccc3c12)C1CC1 | –
83 | > 50 | – | – | NC(=O)c1cnc(NC2CCC2)c2c1[nH]c1ccc(F)cc12 | –
1 | > 50 | 29 | 220 | NC(=O)c1cnc(NC(C2CC2)C2CC2)c2c1[nH]c1cc(-c3cnc(N)nc3)ccc12 | inhibition at 10 µM (CYP2C9): 35%; clearance [6]: 21 mL/min/kg; IC50 [3]: 8200 nM; inhibition at 10 µM (CYP3A4): 55%
2 | > 50 | 61 | 370 | NC(=O)c1cnc(N[C@H](C2CC2)C(F)(F)F)c2c1[nH]c1cc(-c3ccc(N)nc3)ccc12 | inhibition at 10 µM (CYP2C9): 41%; clearance [6]: 6 mL/min/kg; IC50 [3]: 750 nM; inhibition at 10 µM (CYP3A4): 65%
2700 | > 50 | – | – | CCN(c1ncc(C(N)=O)c2[nH]c3ccc(F)cc3c12)C1CCCCC1 | –
2 | > 50 | 120 | 160 | NC(=O)c1cnc(N[C@H](C2CC2)C(F)(F)F)c2c1[nH]c1cc(-c3ccc(N4CCS(=O)(=O)CC4)nn3)ccc12 | clearance [6]: 54 mL/min/kg
2 | > 50 | 45 | 170 | CCC(Nc1ncc(C(N)=O)c2[nH]c3cc(-c4cnn(C)c4)ccc3c12)C1CC1 (stereo not given) | –

Source: ChEMBL document CHEMBL1833803, “Discovery of 1-amino-5H-pyrido[4,3-b]indol-4-carboxamide inhibitors of Janus kinase 2 (JAK2) for the treatment of myeloproliferative disorders” (J Med Chem, 2011)
